From patent publication US9066977B2, “Method of utilization of combination of benzophenone derivative or salt thereof and immunosuppressing agent, and pharmaceutical composition comprising these components” (TOYAMA CHEMICAL CO., LTD., priority 2008, dated 2015)

Legend:
[1] = test system: mouse type II collagen-induced arthritis; test: Combined use of compound A and methotrexate on mouse type II collagen-induced arthritis (Test Example 1); type: in vivo; conditions: male DBA/1J mice, day following final administration
Procedure: Eight-week-old male DBA/1J mice (9 or 10 mice per group; Charles River Laboratories Japan) were used. A 2 mg/mL bovine type II collagen dissolved in a 0.1 mol/L acetic acid solution (Koken Co., Ltd.) was mixed with an equal volume of Freund's complete adjuvant (BD Diagnostic Systems) to prepare an emulsion. The emulsion (0.2 mL) was intradermally injected at the hip of each mouse. Twenty-one days after the primary immunization, the same treatment was carried out (secondary immunization), so that type II collagen arthritis was induced.
Compound A was dissolved in a 2-fold molar amount of sodium hydroxide solution, and a 3-fold weight of polyvinylpyrrolidone was then added to the solution, followed by dilution with distilled water. The concentration of compound A in a compound A (1 mg/kg)-dosing solution was adjusted to be 0.1 mg/mL. Methotrexate was suspended in 0.5% methylcellulose solution. The concentration of methotrexate in methotrexate (0.5 mg/kg)-dosing solution was adjusted to be 0.05 mg/mL. Each dosing solution was orally administered to the mice.
To control group, polyvinylpyrrolidone solution and 0.5% methylcellulose solution were orally administered. […]
The knuckle portion and the articulations of wrist and tarsus portions of the four paws of each mouse were evaluated using the following 4 scores. […]

[2] = test system: mouse type II collagen-induced arthritis; test: Combined use of compound A and dexamethasone on mouse type II collagen-induced arthritis (Test Example 2); type: in vivo; conditions: male DBA/1J mice, day following final administration
Procedure: Eight-week-old male DBA/1J mice (8-10 mice per group; Charles River Laboratories Japan) were used. The induction of mouse type II collagen arthritis was conducted by the method according to Test Example 1.
Compound A was dissolved in a 2-fold molar amount of sodium hydroxide solution, and a 3-fold weight of polyvinylpyrrolidone was then added to the solution, followed by dilution with distilled water. The concentrations of compound A in compound A (1 mg/kg and 10 mg/kg)-dosing solutions were adjusted to be 0.1 mg/mL and 1.0 mg/mL. The concentration of compound A in a compound A (1 mg/kg)-dosing solution in combined administration was adjusted to be 0.2 mg/mL. Dexamethasone was suspended in polyvinylpyrrolidone solution. The concentration of dexamethasone in dexamethasone (0.025 mg/kg)-dosing solution was adjusted to be 0.0025 mg/mL. The concentration of dexamethasone in dexamethasone (0.025 mg/kg)-dosing solution in combined administration was adjusted to be 0.005 mg/mL. Each dosing solution was orally administered to the mice.
To control group, polyvinylpyrrolidone solution was orally administered.
After dividing into groups, and the second immunization, compound A and dexamethasone were administered once a day for 14 days.
The evaluation to mouse arthritis was conducted by the method according to Test Example 1.

[3] = Compound A 1 mg/kg orally once a day for 14 days

`CN(Cc1cnc2nc(N)nc(N)c2n1)c1ccc(C(=O)N[C@@H](CCC(=O)O)C(=O)O)cc1` [Methotrexate, reference compound] was tested, and the “Arthritis inhibition rate (%)” value ([1]; Methotrexate 0.5 mg/kg orally once a day for 14 days) was 15%.
In the case of `C[C@@H]1C[C@H]2[C@@H]3CCC4=CC(=O)C=C[C@]4(C)[C@@]3(F)[C@@H](O)C[C@]2(C)[C@@]1(O)C(=O)CO` [Dexamethasone, reference compound], the “Arthritis inhibition rate (%)” value ([2]; Dexamethasone 0.025 mg/kg orally once a day for 14 days) is reported as 30%.
`O=C(O)CCc1cc(C(=O)c2ccc(OC3CCCC3)cc2O)ccc1OCc1ccc2c(O)noc2c1` [Compound A, 3-(5-(4-(cyclopentyloxy)-2-hydroxybenzoyl)-2-((3-hydroxy-1,2-benzisoxazol-6-yl)methoxy)phenyl)propionic acid] was tested, and the “Arthritis inhibition rate (%)” value [1, 3] was 19%, the “Arthritis inhibition rate (%)” value [2, 3] was 14% and the “Arthritis inhibition rate (%)” value ([2]; Compound A 10 mg/kg orally once a day for 14 days) was 58%.
